Reference: patent publication US20160038474A1, “COMPOSITIONS AND METHODS FOR THE MODULATION OF HEMOGLOBIN (S)” (GLOBAL BLOOD THERAPEUTICS, INC., priority 2013, published 2016)
Like-named read-outs stand apart in the source and are kept apart here.

Legend:
[1] = biological target: T1, HbS/A (Homo sapiens, UniProt P68871+P69905, E7V); test: R/T assay (relaxed-to-tense transition); format: biochemical; settings: HbS/A 3 μM
T1 construct: A mixture of HbS/A was purified from blood obtained from homozygous sickle cell patients; from tissue; host or cells: blood of homozygous sickle cell patients
Experimental: This ability can be expressed as a “delta R” value (i.e., the change in the time-period of the R state after hemoglobin is treated with a compound, as compared to the period without treatment with the compound). Delta R is the % R to remaining after the compounds treatment compared with no treatment (e.g., if R % without treatment is 8% while with treatment with a target compound is 48% R at 30 μM, then % R is 40% for that compound.
A mixture of HbS/A was purified from blood obtained from homozygous sickle cell patients though the Hemoglobinopathy Center at Children's Hospital Oakland Research Institute (CHORI) with Institutional Review Board approval. HbS/A (at a final concentration of 3 μM) was incubated for 1 hr at 37° C. in presence or absence of compounds in […] potassium phosphate buffer, pH=7.4 and 30 μM 2,3 diphosphoglycerate (DPG) in 96 well plates in a final volume of 160 μl. Compounds were added at different concentrations (3 μM to 100 μM final concentrations). Plates were covered with a Mylar film. After incubation was completed the Mylar cover was removed and the plates were placed in a Spectrostar Nano plate reader previously heated at 37° C. Five minutes later, N2 (flow rate=20 L/min) was flowed through the spectrophotometer. Spectroscopic measurements (300 nm to 700 nm) were taken every 5 min for 2 hours. Data analysis was performed by using linear regression from the data retrieved for all wavelengths.

[2] = Mouse intravenous pharmacokinetics and blood/plasma partitioning; format: in vivo; settings: mice; for blood plasma ratio: whole blood and plasma, iv
Description: The ability of compound 12 to partition preferentially in red blood cells has also been confirmed in mice treated intravenously. […] Analogous to the measurements in rats, the volume of distribution (Vss) was low in mice (0.10). Thus, compound 12 is not expected to broadly distribute into extravascular space in mice.

[3] = system: washed red blood cells; test: Reverse Hemox assay (OEC), washed red blood cells; format: cell-based, human
Experimental: (§1) Oxygen Equilibrium Curves (OEC) of whole blood before and after treatment with different concentrations of compounds 12, 22 and 23 were performed as follows using a HEMOX analyzer (TCS Scientific, New Hope, Pa.). Blood samples from homozygous sickle cell patients were obtained though the Hemoglobinopathy Center at Children's Hospital Oakland Research Institute (CHORI) with Institutional Review Board approval. The hematocrit was adjusted to 20% using autologous plasma and the blood samples were incubated for 1 hour at 37° C. in absence or presence of compounds. 100 μl of these samples were added to 5 mL of Hemox butter (30 mM TES, 130 mM NaCl, 5 mM KCl, pH=7.4) at 37° C. and then transferred to the Hemox sample chamber. The samples were saturated with oxygen by flushing with compressed air for 10 minutes. The samples were then flushed with pure nitrogen and the respective absorbances of oxy- and deoxy-Hb are recorded as a function of the solution pO2. The oxygen equilibrium data were then fitted to the Hill Model to obtain values for p50. The deoxygenation curves for both whole blood alone (control) and whole blood in the presence of the compound were collected with the TCS software.
(§2) Reverse hemox assay was performed essentially as described in Example 2, above, using either washed red blood cells or whole blood.
Results: Table 4, below, indicates the percent change in p50 (delta p50%) for each compound tested. In the washed red blood cells (RBCs), 5-HMF, compound 5, and compound 12 (1 mM compound) gave p50 of 20, 9 and 7 mm Hg, respectively, compared to the control red blood cells (delta p50=30 mm Hg). To determine the effects of plasma proteins on compound activity. OECs were measured in whole blood from sickle cell disease patients. 5-HMF, compound 5, compound 9, and compound 12 gave p50 of 27, 18, 11 and 6 mm Hg, respectively, compared to the control blood p50 of 30 mm Hg.

[4] = biological target: T2, whole blood from homozygous sickle cell patients, Hb(S) (Homo sapiens, UniProt P68871+P69905, E7V); test: Reverse Hemox assay (oxygen equilibrium curves), whole blood; format: cell-based; settings: for Whole Blood OEC (delta p50%): [Hb] 1 mM
T2 construct: Oxygen Equilibrium Curves (OEC) of whole blood before and after treatment; from tissue; host or cells: whole blood (or washed red blood cells) of homozygous sickle cell patients
Experimental: as §1
Results: Table 3 below lists the delta p50% values where “+” indicates a delta p50% of between 0 and 29, “++” indicates a delta p50% of between 30 and 50, and “+++” indicates a delta p50% of 50 or greater.
as §2

[5] = system: sickle cell disease patient whole blood (ssRBCs); test: Viscosity assay, hypoxic sickle cell blood; format: cell-based, human; settings: for Viscosity (ΔcP): [Hb] 1.5 mM, two hours of hypoxia
Experimental: Sickle cell disease patients develop anemia as a means for the circulatory system to compensate for increase in blood viscosity caused by the non-deformable sickle cell red blood cells (ssRBCs). The effects of 5-HMF, compound 5, compound 9, or compound 12 were tested on sickle cell disease patient blood rheology to determine if these compounds decrease the viscosity of ssRBCs that have undergone hypoxia. Using blood from patients with sickle cell disease, whole blood (30% hematocrit, ˜1.5 mM Hb) was incubated with 5-HMF, compound 5, compound 9, or compound 12 during exposure to two hours of hypoxia (2.4% 02). A cone-plate viscometer was used to measure the viscosity at shear rates ranging from 60 s^−1 to 415 s^−1.

[6] = biological target: HbS (Homo sapiens, UniProt P68871+P69905, E7V); test: 96-well oxygen dissociation assay (ODA); format: biochemical
[7] = ratio of compound 12 to Hb of 1:3

CC(C)n1nccc1-c1ncccc1COc1cccc(O)c1C=O [Compound 12, 2-hydroxy-6-[[2-(2-propan-2-ylpyrazol-3-yl)pyridin-3-yl]methoxy] benzaldehyde]
R-T delta R ([1]; 9 μM compound): 65.45 | R-T delta R (class) ([1]; 9 μM compound): +++ (a delta R of 50 or greater) | R-T delta R ([1]; 10 μM compound): 62.75 | R-T delta R (class) ([1]; 10 μM compound): +++ (a delta R of 50 or greater) | Vd ([2]; in vivo, read-out: volume of distribution (Vss)): 0.1 L/kg | blood plasma ratio ([2]; read-out: ratio of blood/plasma at overall exposure): 30 | blood plasma ratio ([2]; read-out: ratio of blood/plasma at peak in vivo concentration): 15.4 | Washed RBC OEC (delta p50%) ([3]; [Hb] 1 mM, [cmp] 1 mM): 76% | p50 ([3]; washed RBCs, 1 mM compound, control 30 mm Hg): 7 mm Hg | Reverse Hemox delta p50% (class) ([4]; 1 mM compound, whole blood, hematocrit 20%): +++ (a delta p50% of 50 or greater) | Reverse Hemox delta p50% ([4]; 1 mM compound, whole blood, hematocrit 20%, 1 hour 37° C.): 79.83% | Whole Blood OEC (delta p50%) ([4]; [cmp] 1 mM): 80% | Whole Blood OEC (delta p50%) ([4]; [cmp] 3 mM): >80% | p50 ([4]; whole blood from sickle cell disease patients, control blood p50 30 mm Hg): 6 mm Hg | Viscosity (ΔcP) ([5]; [cmp] 1.6 mM): 2.0 cP | Viscosity (ΔcP) ([5]; [cmp] 8 mM): >2.4 cP | blood viscosity ([5]; equimolar compound, hypoxia, 6.33 cP without compound): 4.32 cP | Hb in ODA (Δoxy state) ([6]; [Hb] 3 μM, [cmp] 1 μM): 16 | improvement in oxygen affinity for Hb [6, 7]: two-fold | more oxygenated Hb present [6, 7]: 16%
